By EC30 is commonly meant the point of the concentration-response curve where the effect stands at 30%.

The target of one assay is T1, F508del (Homo sapiens, UniProt P13569, DEL508-508).
T1 construct: expressed in transfected cells
T1 sequence (P13569 with tags, fused parts or gaps DEL508-508): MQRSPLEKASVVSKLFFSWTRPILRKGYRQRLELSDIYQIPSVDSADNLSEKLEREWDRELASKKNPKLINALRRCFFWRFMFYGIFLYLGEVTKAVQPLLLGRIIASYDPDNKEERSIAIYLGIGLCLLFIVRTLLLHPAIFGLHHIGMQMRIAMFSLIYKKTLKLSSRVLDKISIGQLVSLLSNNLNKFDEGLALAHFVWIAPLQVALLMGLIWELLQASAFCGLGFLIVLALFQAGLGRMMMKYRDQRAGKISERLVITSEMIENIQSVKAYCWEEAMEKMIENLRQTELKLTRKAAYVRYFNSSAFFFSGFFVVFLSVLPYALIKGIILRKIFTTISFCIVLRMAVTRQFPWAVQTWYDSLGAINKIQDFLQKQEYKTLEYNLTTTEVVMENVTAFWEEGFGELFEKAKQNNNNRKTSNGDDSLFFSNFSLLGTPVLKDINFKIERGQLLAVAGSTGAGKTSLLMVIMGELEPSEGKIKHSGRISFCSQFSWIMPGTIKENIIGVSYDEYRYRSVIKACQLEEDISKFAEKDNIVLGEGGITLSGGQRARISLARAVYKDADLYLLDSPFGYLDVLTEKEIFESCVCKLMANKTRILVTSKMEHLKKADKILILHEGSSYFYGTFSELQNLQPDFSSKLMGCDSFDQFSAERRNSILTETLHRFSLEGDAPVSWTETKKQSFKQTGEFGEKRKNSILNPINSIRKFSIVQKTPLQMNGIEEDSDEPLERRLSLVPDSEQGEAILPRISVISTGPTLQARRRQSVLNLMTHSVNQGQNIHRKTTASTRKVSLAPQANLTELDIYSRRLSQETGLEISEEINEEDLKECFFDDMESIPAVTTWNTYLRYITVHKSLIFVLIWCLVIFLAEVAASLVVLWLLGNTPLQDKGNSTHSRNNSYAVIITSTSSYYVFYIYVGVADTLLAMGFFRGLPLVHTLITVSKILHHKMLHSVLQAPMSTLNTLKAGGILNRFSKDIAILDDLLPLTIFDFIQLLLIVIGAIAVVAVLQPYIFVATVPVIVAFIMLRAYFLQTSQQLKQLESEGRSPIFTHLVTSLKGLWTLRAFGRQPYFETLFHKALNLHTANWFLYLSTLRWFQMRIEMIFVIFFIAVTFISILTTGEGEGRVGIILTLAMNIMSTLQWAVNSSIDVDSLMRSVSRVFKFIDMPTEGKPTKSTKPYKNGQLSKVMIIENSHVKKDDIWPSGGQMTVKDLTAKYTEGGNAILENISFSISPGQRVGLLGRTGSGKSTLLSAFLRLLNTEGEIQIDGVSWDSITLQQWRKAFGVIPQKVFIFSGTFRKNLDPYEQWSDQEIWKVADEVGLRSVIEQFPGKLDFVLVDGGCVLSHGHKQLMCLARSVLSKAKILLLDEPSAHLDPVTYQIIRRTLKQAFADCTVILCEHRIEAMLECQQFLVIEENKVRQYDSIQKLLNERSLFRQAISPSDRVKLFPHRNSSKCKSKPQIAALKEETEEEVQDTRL
Kind of assay: Protocol 2: FRET membrane potential optical assay (VIPR), identification of correction compounds. Type of assay: cell-based. The following applies: F508del CFTR modulator activity; compounds of Table 1; read-out: EC30. The gist of the method:
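Mouse NIH3T3 cells, stable F508del; cpd 16 hrs, 37° C., serum-free; pos ctrl 27° C. 16 hrs. Rinse in Krebs Ringers, dye load, then add 10 μM forskolin + 20 μM genistein with Cl^−-free (gluconate) medium; depolarization by FRET voltage dyes.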
Turning to `CC(C)COc1cc(F)cc(-c2ccc(C(=O)NS(=O)(=O)N3CC(O)CC(F)(F)C3)c(N3C[C@@H](C)CC3(C)C)n2)c1` (stereo partly drawn) [Compound 2508, N-[(3,3-difluoro-5-hydroxy-1-piperidyl)sulfonyl]-6-(3-fluoro-5-isobutoxy-phenyl)-2-[(4S)-2,2,4-trimethylpyrrolidin-1-yl]pyridine-3-carboxamide], the EC30 is < 3000 nM. Still for that read-out and setting: with `COc1ccc2nc(N3C[C@@H](C)CC3(C)C)c(C(=O)NS(=O)(=O)c3ccc[nH]c3=O)cc2c1` [Compound 2419, 6-methoxy-N-[(2-oxo-1H-pyridin-3-yl)sulfonyl]-2-[(4S)-2,2,4-trimethylpyrrolidin-1-yl]quinoline-3-carboxamide] the figure was 3000 to 10000 nM; with `C[C@@H]1CN(c2nc(-c3cccc4c3OCC4)ccc2C(=O)NS(=O)(=O)c2ccc[nH]c2=O)C(C)(C)C1` [Compound 2583, 6-(2,3-dihydrobenzofuran-7-yl)-N-[(2-oxo-1H-pyridin-3-yl)sulfonyl]-2-[(4S)-2,2,4-trimethylpyrrolidin-1-yl]pyridine-3-carboxamide], 3000 to 10000 nM. On the same count and under the same terms, as for `CC(C)Cc1ccc(C(=O)NS(=O)(=O)c2cccnc2N)c(N2C[C@@H](C)CC2(C)C)n1` [Compound 2150, N-[(2-amino-3-pyridyl)sulfonyl]-6-isobutyl-2-[(4S)-2,2,4-trimethylpyrrolidin-1-yl]pyridine-3-carboxamide], the figure is < 3000 nM; as for `Cc1noc(C)c1-c1ccc(C(=O)NS(=O)(=O)c2cccnc2N)c(N2C[C@@H](C)CC2(C)C)n1` [Compound 2215, N-[(2-amino-3-pyridyl)sulfonyl]-6-(3,5-dimethylisoxazol-4-yl)-2-[(4S)-2,2,4-trimethylpyrrolidin-1-yl]pyridine-3-carboxamide], 3000 to 10000 nM; as for `CC(C)COc1cc(F)cc(-c2ccc(C(=O)NS(=O)(=O)c3cccc(N)n3)c(C3=CC(C)CC3(C)C)n2)c1` (single isomer, unassigned) [Compound 2039, N-[(6-amino-2-pyridyl)sulfonyl]-6-(3-fluoro-5-isobutoxy-phenyl)-2-(3,5,5-trimethylcyclopenten-1-yl)pyridine-3-carboxamide], < 3000 nM. Still for that read-out and setting: with `C[C@@H]1CN(c2nc(O[C@H]3CCOC3)c(F)cc2C(=O)NS(=O)(=O)c2cccc(N)n2)C(C)(C)C1` [Compound 2056, N-[(6-amino-2-pyridyl)sulfonyl]-5-fluoro-6-[(3S)-tetrahydrofuran-3-yl]oxy-2-[(4S)-2,2,4-trimethylpyrrolidin-1-yl]pyridine-3-carboxamide] the figure was 3000 to 10000 nM; with `C[C@@H]1CN(c2nc(-c3cccc4c3OCC4)ccc2C(=O)NS(=O)(=O)c2cccnc2N)C(C)(C)C1` [Compound 2163, N-[(2-amino-3-pyridyl)sulfonyl]-6-(2,3-dihydrobenzofuran-7-yl)-2-[(4S)-2,2,4-trimethylpyrrolidin-1-yl]pyridine-3-carboxamide], < 3000 nM. In the case of `CC1CN(c2nc(C(C)(C)C)ccc2C(=O)NS(=O)(=O)c2cccc(OCc3ccc4c(c3)OCO4)n2)C(C)(C)C1` (centres unmarked) [Compound 2714], the EC30 is < 3000 nM. On the same count and under the same terms, with `CC1CN(c2ncccc2C(=O)NS(=O)(=O)c2cccc(Nc3cccc4cnccc34)n2)C(C)(C)C1` (centres unmarked) [Compound 2274, N—[[6-(5-isoquinolylamino)-2-pyridyl]sulfonyl]-2-(2,2,4-trimethylpyrrolidin-1-yl)pyridine-3-carboxamide] the figure was 3000 to 10000 nM; with `CC1CN(c2ncccc2C(=O)NS(=O)(=O)c2cccc(OC3CC=CC3)n2)C(C)(C)C1` (centres unmarked) [Compound 2317, N-[(6-cyclopent-3-en-1-yloxy-2-pyridyl)sulfonyl]-2-(2,2,4-trimethylpyrrolidin-1-yl)pyridine-3-carboxamide], < 3000 nM.

Regarding `CC1CN(c2ncccc2C(=O)NS(=O)(=O)c2cccc(N3CCN(C4CCCCC4)CC3)n2)C(C)(C)C1` (centres unmarked) [Compound 2601, N—[[6-(4-cyclohexylpiperazin-1-yl)-2-pyridyl]sulfonyl]-2-(2,2,4-trimethylpyrrolidin-1-yl)pyridine-3-carboxamide], the concentration for an effect of 30% (EC30) lay within 3000 to 10000 nM. On the same count and under the same terms, with `CCOc1cc(C)cc(-c2ccc(C(=O)NS(=O)(=O)c3cccnc3N)c(N3C[C@@H](C)CC3(C)C)n2)c1` [Compound 2241, N-[(2-amino-3-pyridyl)sulfonyl]-6-(3-ethoxy-5-methyl-phenyl)-2-[(4S)-2,2,4-trimethylpyrrolidin-1-yl]pyridine-3-carboxamide] the figure was < 3000 nM.

Still in this assay, the particulars now being: Table 3; compounds of Table 1 as modulators of CFTR activity; protocol not stated.
Turning to `C[C@@H]1CC[C@H](C)N1c1nc(-c2ccc(Cl)cc2)ccc1C(=O)NS(=O)(=O)c1ccc[nH]c1=O` [Compound 760, 6-(4-chlorophenyl)-2-[(2S,5R)-2,5-dimethylpyrrolidin-1-yl]-N-[(2-oxo-1H-pyridin-3-yl)sulfonyl]pyridine-3-carboxamide], the 30% effect concentration (EC30) result was “++ (“++” means between 3 uM and 10 uM)”.

Consider `COc1ccc2c(c1)C(C)(C(=O)NS(=O)(=O)c1cccc(N)n1)N(Cc1c(C)cc(C)cc1C)C2` (centres unmarked) [Compound 474, N-[(6-amino-2-pyridyl)sulfonyl]-6-methoxy-1-methyl-2-[(2,4,6-trimethylphenyl)methyl]isoindoline-1-carboxamide], for which the 30% effect concentration (EC30) result is listed as “+++ (“+++” means <3 uM)”. Still for that read-out and setting: with `Cc1ccccc1N(C)c1nc(C(C)(C)C)ccc1C(=O)NS(=O)(=O)c1cccc(N)c1` [Compound 193, N-(3-aminophenyl)sulfonyl-6-tert-butyl-2-(N,2-dimethylanilino)pyridine-3-carboxamide] the entry was “+++ (“+++” means <3 uM)”; with `CC(C)COc1cc(F)cc(-c2ccc(C(=O)NS(=O)(=O)c3cccc(N)n3)c(N3CCC[C@@H]3C(F)(F)F)n2)c1` [Compound 398, N-[(6-amino-2-pyridyl)sulfonyl]-6-(3-fluoro-5-isobutoxy-phenyl)-2-[(2R)-2-(trifluoromethyl)pyrrolidin-1-yl]pyridine-3-carboxamide], “+++ (“+++” means <3 uM)”; with `CC(C)COc1cccc(-c2ccc(C(=O)NS(=O)(=O)c3ccn[nH]3)c(N3[C@H](C)CC[C@@H]3C)n2)c1` [Compound 710, 2-[(2S,5R)-2,5-dimethylpyrrolidin-1-yl]-6-(3-isobutoxyphenyl)-N-(1H-pyrazol-5-ylsulfonyl)pyridine-3-carboxamide], “+++ (“+++” means <3 uM)”. The same measure, in the same setting: as for `CCCOc1cc(-c2ccc(C(=O)NS(=O)(=O)c3cccc(N)n3)c(Oc3c(C)cc(C)cc3C)n2)ccc1Cl` [Compound 535, N-[(6-amino-2-pyridyl)sulfonyl]-6-(4-chloro-3-propoxy-phenyl)-2-(2,4,6-trimethylphenoxy)pyridine-3-carboxamide], the entry is “+++ (“+++” means <3 uM)”. Same read-out and setting: with `Cc1cc(C)c(Cn2cc(C(C)(C)C)cc2C(=O)NS(=O)(=O)c2ccccc2)c(C)c1` [Compound 242, N-(benzenesulfonyl)-4-tert-butyl-1-[(2,4,6-trimethylphenyl)methyl]pyrrole-2-carboxamide] the entry was “+++ (“+++” means <3 uM)”. With `CC(C)c1ccccc1Oc1nc(C(C)(C)C)ccc1C(=O)NS(=O)(=O)c1ccccc1` [Compound 147, N-(benzenesulfonyl)-6-tert-butyl-2-(2-isopropylphenoxy)pyridine-3-carboxamide], the concentration for an effect of 30% (EC30) entry is reported as “+++ (“+++” means <3 uM)”.

As to `Cc1cc(C)c(Oc2nc(-n3cccn3)ccc2C(=O)NS(=O)(=O)c2cccc(N)n2)c(C)c1` [Compound 564, N-[(6-amino-2-pyridyl)sulfonyl]-6-pyrazol-1-yl-2-(2,4,6-trimethylphenoxy)pyridine-3-carboxamide], the concentration for an effect of 30% (EC30) entry was “++ (“++” means between 3 uM and 10 uM)”. Still for that read-out and setting: as for `COc1ccc(-c2ccc(C(=O)NS(=O)(=O)c3cccc(N)n3)c(Oc3c(C)cc(C)cc3C)n2)cc1` [Compound 17, N-[(6-amino-2-pyridyl)sulfonyl]-6-(4-methoxyphenyl)-2-(2,4,6-trimethylphenoxy)pyridine-3-carboxamide], the entry is “+++ (“+++” means <3 uM)”; as for `CC[C@@H]1CCCN1c1nc(-c2cc(F)cc(OCC(C)C)c2)ccc1C(=O)NS(=O)(=O)c1ccn[nH]1` [Compound 591, 2-(2-ethylpyrrolidin-1-yl)-6-(3-fluoro-5-isobutoxy-phenyl)-N-(1H-pyrazol-5-ylsulfonyl)pyridine-3-carboxamide], “+++ (“+++” means <3 uM)”. Same read-out and setting: with `Cc1cc(C)c(Cn2nc(C(C)(C)C)cc2C(=O)C(C)S(=O)(=O)c2ccccc2)c(C)c1` (racemic) [Compound 139, 2-(benzenesulfonyl)-1-[5-tert-butyl-2-[(2,4,6-trimethylphenyl)methyl]pyrazol-3-yl]propan-1-one] the entry was “+++ (“+++” means <3 uM)”.

In the case of `CC1CN(c2nc(-c3cccc(OC(C)C)n3)ccc2C(=O)NS(=O)(=O)c2cccc(N)n2)C(C)(C)C1` (centres unmarked) [Compound 708, N-[(6-amino-2-pyridyl)sulfonyl]-6-(6-isopropoxy-2-pyridyl)-2-(2,2,4-trimethylpyrrolidin-1-yl)pyridine-3-carboxamide], the EC30 entry was “+++ (“+++” means <3 uM)”. Same read-out and setting: with `CCOc1ncccc1-c1ccc(C(=O)NS(=O)(=O)c2cccc(N)n2)c(Oc2c(C)cc(C)cc2C)n1` [Compound 718, N-[(6-amino-2-pyridyl)sulfonyl]-6-(2-ethoxy-3-pyridyl)-2-(2,4,6-trimethylphenoxy)pyridine-3-carboxamide] the entry was “+++ (“+++” means <3 uM)”; with `Cc1cc(C)c(Oc2nc(-c3c[nH]nc3C(F)(F)F)ccc2C(=O)NS(=O)(=O)c2cccc(N)n2)c(C)c1` [Compound 582, N-[(6-amino-2-pyridyl)sulfonyl]-6-[3-(trifluoromethyl)-1H-pyrazol-4-yl]-2-(2,4,6-trimethylphenoxy)pyridine-3-carboxamide], “++ (“++” means between 3 uM and 10 uM)”. On the same count and under the same terms, with `Cc1cc(C)c(Oc2nc(-c3cccc(CC#N)c3)ccc2C(=O)NS(=O)(=O)c2cccc(N)n2)c(C)c1` [Compound 388, N-[(6-amino-2-pyridyl)sulfonyl]-6-[3-(cyanomethyl)phenyl]-2-(2,4,6-trimethylphenoxy)pyridine-3-carboxamide] the entry was “++ (“++” means between 3 uM and 10 uM)”.

The values above are taken from patent publication US10758534B2 (Vertex Pharmaceuticals Incorporated, priority 2014, dated 2020).
